Test results from patent US20240398818A1, “Cardiosafe Antidiabetic Therapy” (priority 2018, published 2024).

System: adult patients with early type 2 diabetes mellitus and increased CV risk or established complications
Assay: Cardiovascular Safety Trial (linagliptin versus glimepiride)
Type: in vivo
Experimental: The effect of linagliptin on cardiovascular risk in adult patients with early type 2 diabetes mellitus and increased CV risk or established complications was evaluated in this Cardiovascular Safety Trial, a multi-center, multi-national, randomized, double-blind parallel group trial. The trial compared the risk of experiencing a major adverse cardiovascular event (MACE) between linagliptin and glimepiride when these were added to standard of care (including background therapy with metformin) based on regional standards for HbA1c and CV risk factors. The trial was event driven and patients were followed until at least 631 primary outcome events accrued.
A total of 6033 patients were treated (linagliptin 5 mg=3023; glimepiride 1 mg to 4 mg=3010) and followed for a median of 6.25 years (median time on treatment 5.9 years). Approximately 73% of the study population was Caucasian, 18% was Asian, and 5% was Black. The mean age was 64 years and 60% were male.
At baseline, disease characteristics were balanced. […] The trial population included 2030 (34%) patients ≥70 years of age, 2089 (35%) patients with cardiovascular disease, and 1130 (19%) patients with renal impairment with an eGFR <60 mL/min/1.73 m2 at baseline. Overall, the previous use of diabetes medications was balanced across treatment groups (metformin 83% continued as background therapy, sulfonylurea 28% discontinued prior to randomization), patients on insulin were excluded. The use of medications to reduce cardiovascular risk was also balanced (aspirin 47%, statins 65%, ACE inhibitors or ARBs 74%, beta blockers 39%, and calcium channel blockers 30%).
The primary endpoint in this Cardiovascular Safety Trial was the time to first occurrence of three point (3P) MACE. A major adverse cardiac event was defined as a cardiovascular death or a nonfatal myocardial infarction (MI) or a nonfatal stroke. The statistical analysis plan tested for non-inferiority for the occurrence of 3P MACE. The key secondary endpoint evaluated the composite of treatment sustainability defined as the proportion of patients on study treatment, that maintain glycemic control (HbA1c≤7.0%) without need for additional antidiabetic drug therapy (rescue medication), without any moderate (symptomatic with glucose value <70 mg/dL) or severe (requiring assistance) hypoglycemic episodes, and without >2% weight gain from baseline.
Cardiovascular Outcome Trial of Linagliptin Versus Glimepriride in Type 2 Diabetes—assessing long-term cardiovascular impact of linagliptin versus the sulphonylurea glimepiride in subjects with early type 2 diabetes and increased cardiovascular risk or established complications. […]
Type 2 diabetes patient with insufficient glycemic control (naïve or currently treated (mono or dual therapy) with e.g. metformin and/or an alpha-glucosidase inhibitor (e.g. having HbA1c 6.5-8.5%), or currently treated (mono or dual therapy) with e.g. a sulphonylurea or glinide, with or without metformin or an alpha-glucosidase inhibitor (e.g. having HbA1c 6.5-7.5%)) and increased or high risk of cardiovascular events, e.g. defined as one or more of risk factors A), B), C) and D) indicated below, are randomized* and treated over a lengthy period (e.g. up to 432 weeks) with linagliptin (5 mg, q.d., optionally in combination with one or more other active substances, e.g. such as added to existing antidiabetic background) and compared with patients treated with the sulphonylurea glimepiride (1-4 mg once daily). * Upon randomization, if a patient is on a SU or glinide, this secretagogue therapy is discontinued and replaced with study medication. For patients not on a secretagogue, study medication is added to the existing regimen.
Time to first occurrence of any of the following adjudicated components of the primary composite endpoint: […]

[1] = baseline to Final Visit, observed cases including values after rescue medication
[2] = both, human, in vivo, 5.9 years
[3] = both, human, in vivo, 6.25 years
[4] = component of secondary composite
[5] = from end of titration (16 weeks) to final visit
[6] = median follow-up 6.25 years, listed as linagliptin

## CC#CCn1c(N2CCC[C@@H](N)C2)nc2c1c(=O)n(Cc1nc(C)c3ccccc3n1)c(=O)n2C [Linagliptin, 1-[(4-methyl-quinazolin-2-yl)methyl]-3-methyl-7-(2-butyn-1-yl)-8-(3-(R)-amino-piperidin-1-yl)-xanthine]
At Final Visit
  patients with macroalbuminuria (>300 mg/g): 1.4%
  patients with microalbuminuria (≥30 to ≤300 mg/g): 14.1%
At baseline and at Final Visit
  patients with normal UACR (<30 mg/g): 58.4%
Baseline to Final Visit, all observed cases
  HBA1c, Change from baseline, adjusted mean: 0.06%
[1]
  Creatinine, Change from baseline, adjusted mean: 0.08 mg/dL
  HDL, Change from baseline, adjusted mean: 0.7 mg/dL
  LDL, Change from baseline, adjusted mean: -6.1 mg/dL
  Total cholesterol, Change from baseline, adjusted mean: -5.4 mg/dL
  Triglyceride, Change from baseline, adjusted mean: 1.7 mg/dL
  Urinary albumin, Change from baseline, adjusted mean: 43.4 mg/dL
Between Visit 6 and Final Visit
  third key secondary endpoint of treatment sustainability (on medication, HbA1c≤7.0%, no rescue, no >2% weight gain), responders: 17.4%
both, human, in vivo
  Hospitalization for heart failure (HHF), Incidence Rate per 1000 PY: 6.4 per 1000 PY
  Hospitalization for heart failure (HHF), Number of Subjects: 112
  Moderate/severe hypoglycaemic episodes, odds ratio: 0.16
  Patients with any moderate/severe hypoglycemic episodes, Number of Subjects: 163
  Patients with any moderate/severe hypoglycemic episodes, Subjects (%): 5.6%
  Secondary CV composite (4P-MACE), Incidence Rate per 1000 PY: 23.4 per 1000 PY
[2]
  rate of moderate or severe hypoglycemia: 6.5%
  severe hypoglycemia (requiring assistance): 0.3%
[3]
  Premature discontinuation from trial medication due to adverse events: 15.1%
  Primary CV composite (3P-MACE), Hazard Ratio: 0.98
  Primary CV composite (3P-MACE), Incidence Rate per 1000 PY: 20.7 per 1000 PY
  Secondary CV composite (4P-MACE), Hazard Ratio: 0.99
  all-cause mortality, incidence rate per 1000 years at risk: 16.8 per 1000 years at risk
  any adjudicated event (secondary CV endpoint), % of patients: 17.1%
  any adjudicated event, HR: 0.96
  hospitalisation for heart failure combined with CV death, incidence rate per 1000 years at risk: 13.4 per 1000 years at risk
  hospitalisation for heart failure, incidence rate per 1000 years at risk: 6.4 per 1000 years at risk
  investigator-reported heart failure AEs, % of patients: 5.5%
  investigator-reported heart failure AEs, HR: 1.06
  investigator-reported heart failure AEs, incidence rate per 1000 years at risk: 9.5 per 1000 years at risk
  non-CV death, % of patients: 4.6%
  non-CV death, incidence rate per 1000 years at risk: 7.6 per 1000 years at risk
  proportion of patients with CV death contributing to the 3P-MACE: 4.3%
  proportion of patients with CV death contributing to the 4P-MACE: 4.1%
  proportion of patients with hospitalisation for unstable angina pectoris contributing to the 4P-MACE: 1.9%
  proportion of patients with non-fatal MI contributing to the 3P-MACE: 4.7%
  proportion of patients with non-fatal MI contributing to the 4P-MACE: 4.4%
  proportion of patients with non-fatal stroke contributing to the 3P-MACE: 2.8%
  proportion of patients with non-fatal stroke contributing to the 4P-MACE: 2.8%
Change baseline to Final Visit
  Creatinine, Comparison vs. glimepiride, Adjusted mean: -0.01 mg/dL
  FPG, Comparison vs. glimepiride, Adjusted mean: -7.3 mg/dL
  HBA1c, Comparison vs. glimepiride, Adjusted mean: −0.09%
  HDL, Comparison vs. glimepiride, Adjusted mean: 0.5 mg/dL
  LDL, Comparison vs. glimepiride, Adjusted mean: 0.4 mg/dL
  Total cholesterol, Comparison vs. glimepiride, Adjusted mean: -0.4 mg/dL
  Triglyceride, Comparison vs. glimepiride, Adjusted mean: -3.5 mg/dL
  Urinary albumin, Comparison vs. glimepiride, Adjusted mean: -1.9 mg/dL
[4]
  Patients with maintained glycemic control (HbA1c ≤7.0%), Number of Subjects: 648
  Patients with maintained glycemic control (HbA1c ≤7.0%), Subjects (%): 21.5%
  Patients with ≤2% weight gain, Number of Subjects: 775
  Patients with ≤2% weight gain, Subjects (%): 25.7%
[5]
  Secondary composite of treatment sustainability (on treatment, HbA1c ≤7.0%, no rescue, no moderate/severe hypoglycemic episodes, no >2% weight gain), Number of Subjects: 481
  Secondary composite of treatment sustainability (second key secondary endpoint), Subjects (%): 16.0%
In vivo
  first intake of rescue medication, incidence rate per 1000 years at risk: 128.6 per 1000 years at risk
  rate of patients who used rescue medication: 49.3%
  safety profile in this trial population (in words): no new safety signal
  time to 3P-MACE, non-inferiority test (in words): non-inferior
Linagliptin compared with glimepiride over time
  weight, adjusted mean difference: -1.61 kg
Linagliptin vs glimepiride
  All-cause mortality, Hazard Ratio: 0.91
  HHF or CV death, Hazard Ratio: 1.00
  non-CV death, hazard ratio: 0.82
  third key secondary endpoint of treatment sustainability, OR: 1.29
Linagliptin vs glimepiride, listed as linagliptin
  HHF or CV death, Hazard Ratio: 1.00
Linagliptin vs glimepiride, logistic regression
  Secondary composite of treatment sustainability (second key secondary endpoint), Odds Ratio: 1.68
Median follow-up 6.25 years
  All-cause mortality, Incidence Rate per 1000 PY: 16.8 per 1000 PY
  All-cause mortality, Number of Subjects: 308
  All-cause mortality, Subjects (%): (10.2) %
  HHF or CV death, Incidence Rate per 1000 PY: 13.4 per 1000 PY
  HHF or CV death, Number of Subjects: 236
  HHF or CV death, Subjects (%): (7.8) %
  Secondary CV composite (cardiovascular death, non-fatal MI, non-fatal stroke and hospitalization for unstable angina; 4P-MACE), Number of Subjects: 398
Median follow-up 6.25 years, added to standard of care
  Primary CV composite (cardiovascular death, non-fatal MI, non-fatal stroke; 3P-MACE), Number of Subjects: 356
[6]
  All-cause mortality, Subjects (%): 10.2%
  HHF or CV death, Subjects (%): 7.8%
Over time
  weight change (in words): modest decrease in weight
